Measured values reported in publication PMC8837544, “Pharmacological inhibition of MERTK induces in vivo retinal degeneration: a multimodal imaging ocular safety assessment” (Archives of Toxicology, 2022).
Values after ≈ are worked out from the molar mass of the structure shown. Values joined by “and” are separate entries in the source; they are usually repeats but may differ in a detail not shown here. Equal entries are not always repeated.

Key:
[1] = Bodyweight and tolerability in 28 day mouse safety study; details: day 5 onwards, remainder of the study
Protocol: (§1) All in vivo experimental procedures were conducted in accordance with United Kingdom legislation (Animals (Scientific Procedures) Act, 1986) and were compliant with the ARRIVE guidelines. 6–7-week-old female (20–25 g) C57BL/6 J mice (Charles River Laboratories Ltd, UK) were acclimatized to the facility for 10 days and then randomized to groups based on bodyweight; vehicle control (n = 6, animals 1–6) and MERTK inhibitor treatment (n = 9, animals 7–15). Animals were treated via oral gavage with vehicle control (60% v/v 0.1 M HCl, 20% v/v PEG 400, 20% v/v purified water pH 3.5–4.5) or AZ14145845 (200 mg/kg). All animals were dosed twice daily with a dose volume of 10 mL/kg for 28 days, with the final dose being administered on the morning of Day 29. The dose interval between the first and second dose on each day was 8 h. […] Samples for histopathology were taken from 6 controls (animals 1–6), 8 treated animals (animals 7–11, 13–15) and for electron microscopy from 1 control (animal no. 1) and 3 treated animals (animals 8–10) and for MSI from 3 treated animals (animals 13–15).

LogD7.4 = type: physicochemical; details: pH 7.4
[2] = Mouse plasma protein binding; type: in vitro ADME
[3] = MALDI mass spectrometry imaging of whole eye sections (quantitative MSI); type: in vivo, C57BL/6 J mice
Protocol: as §1

Mouse pharmacokinetics = type: in vivo
[4] = test system: ARPE19, human retinal epithelial cells; assay: Phagocytosis of photoreceptor outer segments (POS) in human retinal cells; type: cell-based; details: 3 μM, 6-h incubation, FITC-labeled POS
Protocol: ARPE19, human retinal epithelial cells, were cultured in Dulbecco’s modified Eagle’s medium (DMEM/F12, supplemented with 10% fetal bovine serum). All culture materials were purchased from Thermo Fisher Scientific. Cells were seeded at 10,000 cells per well in CellCarrier imaging plates (Perkin Elmer) and cultured for up to 6 weeks to allow for polarization of the cell layer. On the day of treatment cells were washed three times in PBS and then incubated in serum free conditions with FITC-labeled POS at a concentration of 10 POS/cell and either DMSO or 3 μM of AZ14145845 in DMSO. Following incubation for 6 h, cells were washed with PBS to remove non-internalized POS and fixed in 4% PFA. Following staining of nuclei with Hoechst, cells were imaged using a […] ImageExpress Confocal microscope. Each well was imaged at 20 × with 16 images taken per well. Analysis modules were written using the custom module editor of MetaXpress vers 6.5.4.532. Nuclei were segmented and enumerated using the embedded count nuclei module. Individual POS particles were segmented and counted on a per image basis using the same custom module. Data are expressed as fold change in total POS per cell over control. Experiments were carried out a minimum of 3 times.

Solubility = type: physicochemical
[5] = 200 mg/kg BID, C57BL/6 J mice, 28 days
Protocol: as §1
A whole blood sample (32 µL) was collected via a tail vein prick into a K2-EDTA treated capillary tube, centrifuged at 1500g for 10 min at 4 °C, and plasma collected using a micropipette (non-EDTA Ref.no. 172292, Vitrex Medical A/S, Denmark). Samples were collected on Day 1 at 30 min, 2-h, 8-h (pre-second dose) and 24-h post the first dose. On days 7, 28, 29 samples were collected at 2-h post the first dose and at 8-h pre the second dose.

retina [6] = details: mouse, in vivo
Protocol: as §1

macrophage efferocytosis = assay: Macrophage efferocytosis assay; type: cell-based
Mer = Mer (Homo sapiens, UniProt Q12866)
Mer, sequence (Q12866 21-999): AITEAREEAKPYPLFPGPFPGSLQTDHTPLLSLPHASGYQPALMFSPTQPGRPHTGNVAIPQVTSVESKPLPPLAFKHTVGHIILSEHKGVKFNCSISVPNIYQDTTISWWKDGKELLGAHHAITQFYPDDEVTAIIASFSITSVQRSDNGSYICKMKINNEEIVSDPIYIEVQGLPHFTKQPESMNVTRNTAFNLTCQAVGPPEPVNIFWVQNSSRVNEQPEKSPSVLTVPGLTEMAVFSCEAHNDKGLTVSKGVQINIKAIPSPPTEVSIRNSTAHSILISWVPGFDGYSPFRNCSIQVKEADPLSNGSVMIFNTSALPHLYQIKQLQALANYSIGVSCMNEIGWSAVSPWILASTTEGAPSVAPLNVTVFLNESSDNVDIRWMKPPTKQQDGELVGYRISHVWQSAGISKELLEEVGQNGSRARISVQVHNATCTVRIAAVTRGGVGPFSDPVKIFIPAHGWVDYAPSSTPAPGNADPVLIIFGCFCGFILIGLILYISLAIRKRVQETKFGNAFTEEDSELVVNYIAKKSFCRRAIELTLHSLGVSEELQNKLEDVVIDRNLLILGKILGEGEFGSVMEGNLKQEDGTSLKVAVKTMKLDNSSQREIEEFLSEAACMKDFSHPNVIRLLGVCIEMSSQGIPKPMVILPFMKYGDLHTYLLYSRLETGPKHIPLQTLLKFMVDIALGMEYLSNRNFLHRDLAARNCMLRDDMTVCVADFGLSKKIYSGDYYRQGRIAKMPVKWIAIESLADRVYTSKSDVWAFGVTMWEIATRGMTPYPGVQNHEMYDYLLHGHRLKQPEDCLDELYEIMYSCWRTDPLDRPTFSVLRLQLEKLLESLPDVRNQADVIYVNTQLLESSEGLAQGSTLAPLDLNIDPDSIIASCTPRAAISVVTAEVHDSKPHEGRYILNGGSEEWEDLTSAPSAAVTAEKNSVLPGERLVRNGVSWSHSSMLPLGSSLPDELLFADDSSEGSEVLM
Protocol: (§2) Biochemical assays for Mer, Axl, Tyro3 and Flt3 were performed using a Rapidfire LCMS method as previously described (Nissink et al. [2021]). Cellular assays for pMer, pAxl, pTyro3, pFLT3 were performed in transiently transfected Cos-7 (Monkey: African green) cell lines as previously described. The macrophage efferocytosis assay was performed as previously described (Clark et al. [2019]).

Axl [7] = molecular target: T1, Axl (Homo sapiens, UniProt P30530)
T1 sequence (P30530 26-894): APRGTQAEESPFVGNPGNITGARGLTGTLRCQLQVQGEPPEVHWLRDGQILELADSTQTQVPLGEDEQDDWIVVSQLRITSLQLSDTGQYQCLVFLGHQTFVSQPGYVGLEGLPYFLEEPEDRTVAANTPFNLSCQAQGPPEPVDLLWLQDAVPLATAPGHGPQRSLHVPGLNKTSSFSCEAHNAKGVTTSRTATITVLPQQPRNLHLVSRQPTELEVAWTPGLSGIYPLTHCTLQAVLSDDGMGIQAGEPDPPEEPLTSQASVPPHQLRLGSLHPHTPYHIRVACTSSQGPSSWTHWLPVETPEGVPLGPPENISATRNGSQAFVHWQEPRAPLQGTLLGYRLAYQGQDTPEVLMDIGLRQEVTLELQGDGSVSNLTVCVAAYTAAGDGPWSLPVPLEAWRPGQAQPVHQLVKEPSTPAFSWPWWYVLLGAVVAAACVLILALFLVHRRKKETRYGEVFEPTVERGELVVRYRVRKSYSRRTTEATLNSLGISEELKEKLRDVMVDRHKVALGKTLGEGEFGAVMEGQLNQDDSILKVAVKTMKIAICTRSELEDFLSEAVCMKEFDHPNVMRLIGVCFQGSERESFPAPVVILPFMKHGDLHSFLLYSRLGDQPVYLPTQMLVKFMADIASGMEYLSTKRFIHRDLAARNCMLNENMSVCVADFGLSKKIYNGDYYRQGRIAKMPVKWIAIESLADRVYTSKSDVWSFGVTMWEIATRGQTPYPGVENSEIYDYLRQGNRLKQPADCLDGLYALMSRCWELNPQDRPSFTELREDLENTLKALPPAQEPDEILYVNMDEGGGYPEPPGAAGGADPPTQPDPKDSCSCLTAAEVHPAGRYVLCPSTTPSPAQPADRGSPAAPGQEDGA
Protocol: as §2

Flt3 = Flt3 (Homo sapiens, UniProt P36888)
Flt3, sequence (P36888 27-993): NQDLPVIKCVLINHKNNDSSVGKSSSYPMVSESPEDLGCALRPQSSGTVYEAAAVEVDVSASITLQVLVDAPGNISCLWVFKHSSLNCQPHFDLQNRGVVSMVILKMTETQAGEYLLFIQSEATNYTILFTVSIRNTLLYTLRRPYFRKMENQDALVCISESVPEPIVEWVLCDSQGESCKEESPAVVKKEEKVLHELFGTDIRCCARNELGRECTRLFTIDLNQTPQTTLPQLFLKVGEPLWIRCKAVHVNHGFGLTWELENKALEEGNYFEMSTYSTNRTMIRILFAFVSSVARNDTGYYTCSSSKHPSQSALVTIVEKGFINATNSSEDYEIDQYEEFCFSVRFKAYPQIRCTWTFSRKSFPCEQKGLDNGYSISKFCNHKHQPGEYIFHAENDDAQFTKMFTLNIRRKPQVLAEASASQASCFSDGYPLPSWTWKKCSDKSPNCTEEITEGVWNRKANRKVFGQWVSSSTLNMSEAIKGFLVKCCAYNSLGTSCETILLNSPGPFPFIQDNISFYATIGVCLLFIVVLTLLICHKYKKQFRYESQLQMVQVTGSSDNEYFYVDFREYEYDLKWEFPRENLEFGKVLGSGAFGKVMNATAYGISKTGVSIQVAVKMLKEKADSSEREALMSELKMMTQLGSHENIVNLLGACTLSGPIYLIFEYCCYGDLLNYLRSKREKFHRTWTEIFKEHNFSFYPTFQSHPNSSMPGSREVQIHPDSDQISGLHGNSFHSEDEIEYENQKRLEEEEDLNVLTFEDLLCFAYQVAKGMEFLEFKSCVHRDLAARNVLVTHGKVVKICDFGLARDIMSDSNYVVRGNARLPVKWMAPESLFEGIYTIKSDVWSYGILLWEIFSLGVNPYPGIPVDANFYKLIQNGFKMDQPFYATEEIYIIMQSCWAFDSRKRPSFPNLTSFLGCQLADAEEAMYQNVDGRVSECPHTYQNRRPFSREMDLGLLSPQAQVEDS
Protocol: as §2

Axl [8] = molecular target: T1, Axl; details: 1 μM
[9] = test system: Mer kinase Ba/F3 xenograft; details: 200 mg/kg, ref McCoull et al. [2021]; cited from earlier work
HLM intrinsic clearance = type: in vitro ADME, human
retina [10] = assay: Retinal histopathology (H&E light microscopy) in 28 day mouse safety study; type: in vivo, C57BL/6 J mice
hERG = hERG (Homo sapiens, UniProt Q12809); details: read-out: hERG
hERG, sequence (Q12809 whole entry, the tested form may be a part): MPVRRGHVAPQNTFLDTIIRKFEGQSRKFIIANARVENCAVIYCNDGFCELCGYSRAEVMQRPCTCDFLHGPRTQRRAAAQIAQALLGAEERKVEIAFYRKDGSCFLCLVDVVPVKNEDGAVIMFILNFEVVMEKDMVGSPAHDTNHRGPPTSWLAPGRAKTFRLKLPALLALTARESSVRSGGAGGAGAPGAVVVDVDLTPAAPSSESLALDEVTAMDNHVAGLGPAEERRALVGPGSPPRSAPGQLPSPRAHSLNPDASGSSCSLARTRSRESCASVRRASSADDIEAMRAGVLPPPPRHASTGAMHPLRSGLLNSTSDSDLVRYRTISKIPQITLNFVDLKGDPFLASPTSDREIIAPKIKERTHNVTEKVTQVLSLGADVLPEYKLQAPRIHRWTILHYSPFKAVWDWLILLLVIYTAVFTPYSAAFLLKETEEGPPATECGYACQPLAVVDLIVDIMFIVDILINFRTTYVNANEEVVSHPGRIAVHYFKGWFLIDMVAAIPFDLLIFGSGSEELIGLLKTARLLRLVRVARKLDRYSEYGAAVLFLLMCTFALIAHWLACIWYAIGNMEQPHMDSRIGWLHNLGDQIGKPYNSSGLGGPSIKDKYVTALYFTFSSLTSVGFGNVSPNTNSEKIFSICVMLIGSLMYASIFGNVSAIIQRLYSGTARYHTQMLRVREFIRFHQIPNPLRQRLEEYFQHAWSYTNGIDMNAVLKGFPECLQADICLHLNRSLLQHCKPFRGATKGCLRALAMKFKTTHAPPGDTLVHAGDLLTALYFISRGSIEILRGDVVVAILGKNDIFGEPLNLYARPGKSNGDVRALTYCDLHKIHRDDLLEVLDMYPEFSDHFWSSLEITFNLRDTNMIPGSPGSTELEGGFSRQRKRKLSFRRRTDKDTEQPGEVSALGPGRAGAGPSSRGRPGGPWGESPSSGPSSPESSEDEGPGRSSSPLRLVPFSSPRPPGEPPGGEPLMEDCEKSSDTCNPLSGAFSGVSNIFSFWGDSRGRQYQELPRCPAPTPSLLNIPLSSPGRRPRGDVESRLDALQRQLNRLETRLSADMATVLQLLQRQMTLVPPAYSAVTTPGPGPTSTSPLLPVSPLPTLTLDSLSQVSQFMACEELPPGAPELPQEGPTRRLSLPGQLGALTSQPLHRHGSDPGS

[11] = Ocular exposure in the rat (melanin binding); type: in vivo; details: for eye partition coefficient (Kp): iv infusion 2 μmol/kg/h, 4-h post infusion
Protocol: Male pigmented Long Evans and non-pigmented Han Wistar rats were treated via intravenous infusion of AZ14145845 at a dose of 2 μmol/kg/h in a TEG:DMA:H2O (1:1:1) formulation, dose volume 4 mL/kg. At 4-h post the 15-min intravenous infusion, the animals were killed and the eyes extracted and homogenized to determine the concentration of AZ14145845 in the eye.

[12] = CaCo2 permeability and efflux; type: in vitro ADME
MAP4K5 (KHS1) = MAP4K5 (KHS1) (Homo sapiens, UniProt Q9Y4K4); details: 1 μM
MAP4K5 (KHS1), sequence (Q9Y4K4 whole entry): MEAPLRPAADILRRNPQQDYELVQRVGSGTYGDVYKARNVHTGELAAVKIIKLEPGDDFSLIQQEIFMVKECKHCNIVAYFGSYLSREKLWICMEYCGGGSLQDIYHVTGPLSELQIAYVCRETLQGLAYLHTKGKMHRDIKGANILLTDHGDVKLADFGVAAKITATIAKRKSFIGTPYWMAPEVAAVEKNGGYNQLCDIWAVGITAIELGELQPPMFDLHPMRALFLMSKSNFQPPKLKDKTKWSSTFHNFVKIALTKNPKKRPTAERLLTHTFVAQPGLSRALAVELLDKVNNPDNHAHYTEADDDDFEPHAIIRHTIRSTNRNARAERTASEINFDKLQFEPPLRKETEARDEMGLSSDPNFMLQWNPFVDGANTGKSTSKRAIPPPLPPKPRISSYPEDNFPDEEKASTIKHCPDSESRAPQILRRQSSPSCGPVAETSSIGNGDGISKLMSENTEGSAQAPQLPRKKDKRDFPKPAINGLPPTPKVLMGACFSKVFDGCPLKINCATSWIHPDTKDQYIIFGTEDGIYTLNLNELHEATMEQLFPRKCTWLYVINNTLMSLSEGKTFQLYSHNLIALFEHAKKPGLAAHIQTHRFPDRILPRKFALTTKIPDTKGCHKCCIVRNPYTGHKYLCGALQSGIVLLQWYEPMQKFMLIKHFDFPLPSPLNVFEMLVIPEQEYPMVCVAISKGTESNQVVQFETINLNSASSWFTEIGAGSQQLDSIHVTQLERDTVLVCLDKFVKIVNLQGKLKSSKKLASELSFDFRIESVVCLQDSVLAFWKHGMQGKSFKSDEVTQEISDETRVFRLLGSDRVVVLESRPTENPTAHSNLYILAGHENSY

[13] = Human plasma protein binding; type: in vitro ADME
MERTK = MERTK (Homo sapiens, UniProt Q12866); details: 1 μM
MERTK, sequence (Q12866 21-999): as the sequence (Q12866 21-999) above

retina [14] = details: mouse, cited from earlier work
[15] = animals 13-15, 200 mg/kg BID 28 days

Cc1cc(-c2c(C)nn(C)c2C)cnc1-c1nnc(N(C)Cc2ccc3ncc(-c4ccc(CN(C)C)cc4)n3c2)o1 [AZ14145845]
weight gain above baseline [1]: 3–6% | LogD7.4 (LogD7.4): 2.9 | Mouse PPB (% free) [2]: 7.6 % free | A2E (RPE marker) in the posterior part of the eye by MSI ([3]; animal no. 14 compared to animals no. 13 and 15): dramatic decrease | Total concentration in the anterior region of the eye (QMSI) [3, 15]: ~ 11 µM | Total concentration in the posterior region of the eye (QMSI) [3, 15]: ~ 9 µM | Total concentration in the whole eye (QMSI) [3, 15]: ~ 3 µM | ocular distribution by MSI ([3]; whole eye sections, 20 µm spatial resolution): largely localized in the pigmented retinal tissues of the RPE and choroid layers | bioavailability (Mouse pharmacokinetics; mouse): 15% | clearance (Mouse pharmacokinetics; mouse): 2.64 L/h/kg | volume of distribution at steady state (Mouse pharmacokinetics; mouse): 3.7 L/kg | dose dependence of Cmax and AUC (Mouse pharmacokinetics; up to 200 mg/kg): Dose linear increase | drop in the number of internalized POS [4]: ~60% | Solubility (Solubility): 938 µM (≈ 527 µg/mL) | accumulation in plasma [5]: no accumulation was observed | average free cover over MERTK Cos-7 cell IC50 at Cmax [5]: 90 fold | average free cover over MERTK Cos-7 cell IC50 at Cmin [5]: 21 fold | ultra-structural findings by TEM (retina [6]): ultra-structural changes at the interface between the POS and the RPE | Efferocytosis (pIC50) (macrophage efferocytosis): 7.6 | Mer enzyme (pIC50) (Mer): 9.0 | Mer cell (pIC50) (Mer; Cos-7 cell): 7.7 and 7.8 | Axl enzyme (pIC50) (Axl [7]): 7.9 | Axl cell (pIC50) (Axl [7]; Cos-7 cell): 7.0 | Flt3 enzyme (pIC50) (Flt3): < 4.5/ < 4.5 | Flt3 cell (pIC50) (Flt3; Cos-7 cell): < 4.5/ < 4.5 | inhibition of AXL in kinome profiling (Axl [8]): > 90% | efficacy in xenograft tumor model [9]: showed efficacy | HLM CLint (HLM intrinsic clearance): 195 µL/min/mg protein | Total of any retinal degeneration/atrophy (of number examined) (retina [10]; 200 mg/kg BID, 28 days, one eye per mouse): 4 of 8 | length of the retina affected by focal lesion (retina [10]; animal no. 10, lesion midway between optic nerve and peripheral limit): approximately 25% | extent of retina affected (retina [10]; animal no. 14, most severe microscopic changes): entire length of retina | length of the retina affected by focal lesions (retina [10]; animal numbers 8 and 9, lesions towards the periphery of the retina): approximately 20% | Number of animals with no H&E findings (retina [10]; n = 8 treated mice, 200 mg/kg BID, 28 days, one eye per mouse, 200 mg/kg): four of the eight and 4 | Moderate retinal degeneration/atrophy (number of animals) (retina [10]; n = 8 treated mice, diffuse distribution, animal 14): 1 with diffuse distribution | Minimal retinal degeneration/atrophy (number of animals) (retina [10]; n = 8 treated mice, focal distribution, animals 8, 9, 10): 3 with focal distribution | IC50 (hERG): 5.7 µM | difference in eye Kp, pigmented vs non-pigmented rats ([11]; assumed consequence of melanin binding): ~ ten-fold | eye partition coefficient (Kp) ([11]; non-pigmented Han Wistar rat): 2.5 | eye partition coefficient (Kp) ([11]; pigmented Long Evans rat): 19 | CaCo2 efflux ratio [12]: 10 | inhibition of MAP4K5 (KHS1) in kinome profiling (MAP4K5 (KHS1)): > 75% | Human PPB (% free) [13]: 14 % free | inhibition of MERTK in kinome profiling (MERTK): > 90%

CCCCNc1ncc2c(-c3ccc(F)cc3)nn(CC3CCC(N)CC3)c2n1 (stereo not shown) [UNC-569]
electron microscopic evaluation of the retina (retina [14]; in vivo): accumulation of membrane-bound multi-lamellated bodies in the RPE cells | microscopic examination of H&E-stained tissue sections of the eye (retina [14]; in vivo): No changes were detected | duration of inhibition of MERTK phosphorylation in retinal tissue (retina [14]; post oral administration, ref Sayama et al. [2018]): up to 17 h
